Measured values from patent publication US20180201614A1, “BICYCLIC COMPOUNDS” (KALYRA PHARMACEUTICALS, INC., priority 2015, published 2018).

Columns and labels:
[1] = target: IGF1R (Homo sapiens, UniProt P08069); experiment: Biochemical enzyme assay, IGF1R
[2] = target: EGFR Wt (Homo sapiens, UniProt P00533); experiment: EGFR biochemical enzyme assay, Wt
[3] = target: T1, EGFR Del-19 (Homo sapiens, UniProt P00533); experiment: EGFR biochemical enzyme assay, Del-19
T1 construct: as on the sister T790M/L858R enzyme

[4] = target: T2, human EGFR (T790M/L858R) (Homo sapiens, UniProt P00533, L858R/T790M); experiment: EGFR biochemical enzyme assay (HTRF KinEASE TK); details: 30 μM ATP
T2 construct: with amino acids 696-end containing the T790M and L858R mutations; GST (N); purchased Millipore
Protocol: The inhibitory activity of a compound against EGFR (T790M/L858R) were determined with CisBio HTRF (homogenous time-resolved fluorescence) KinEASE TK (#62TKOPEC). The enzyme reaction contained recombinant N-terminal GST-tagged human EGFR (T790M/L858R), which phosphorylates the HTRF tyrosine kinase biotinylated substrate.
The sequence of the substrate is proprietary to CisBio. Test compounds were serially diluted in 100% (v/v) DMSO before being acoustically dispensed from an Echo 555 (Labcyte) into black Corning 1536-well assay plates. Kinase activity assays were performed in a total reaction volume of 3 μL per well. A 1.5 μL enzyme reaction consisted of 1.6 nM EGFR ([…], L858R), 1 mM DTT, and 10 mM MgCl2. A 1.5 μL substrate mix consisted of 1 μM TK substrate, 30 μM ATP, 1 mM DTT, and 10 mM MgCl2. Following a 50 mins incubation, 3 μL of stop mix was added, which consisted of 250 nM Strep-XL665 and TK Ab-Cryptate diluted in kit detection buffer. The plates were incubated for 1 h before being read on Pherastar using standard HTRF settings. N-terminal GST-tagged recombinant human EGF receptor, with amino acids 696-end containing the T790M and L858R mutations, was obtained from Millipore.

[5] = system: PC9 (E746-A750 deletion) cells; experiment: EGFR cell proliferation assay (CellTiter-Glo), PC9; format: cell-based; details: 3-5 days
Protocol: (§1) Cell Lines: A431 (WT), H1975 (L858R/T790M), PC9 (E746-A750 deletion): A431 cells were grown in DMEM (Invitrogen, Carlsbad, Calif.) supplemented with 10% FBS (HyClone, South Logan, Utah) and 1% Penicillin-Streptomycin (P/S, Lonza, Walkersville, Md.). H1975 cells were grown in RPMI 1640 (Invitrogen) supplemented with 10% FBS and 1% P/S. […] PC-9 cells were obtained from Japan. All cells were maintained and propagated as monolayer cultures at 37° C. in a humidified 5% CO2 incubator. All cells were cultured according to recommendations.
(§2) Cell proliferation was measured using the CellTiter-Glo® Luminescent Cell Viability Assay. The assay involved the addition of a single reagent (CellTiter-Glo® Reagent) directly to cells cultured in serum-supplemented medium. The assay used a one-step addition to induce cell lysis and generate a luminescent signal proportional to the amount of ATP present, which is directly proportional to the number of metabolically active cells present in culture.
(§3) Each compound evaluated was prepared as a DMSO stock solution (10 mM). Compounds were tested in duplicate on each plate, with an 11-point serial dilution curve (1:3 dilution). Compound treatment (50 μL) was added from the compound dilution plate to the cell plate. The highest compound concentration was 1 or 10 μM (final), with a 0.3% final DMSO (#D-5879, Sigma, St Louis, Mo.) concentration. Plates were then incubated at 37° C., 5% CO2. After 3-5 days of compound treatment, CellTiter-Glo® Reagent (#G7573, Promega, Madison, Wis.) was prepared in one of two ways. If thawing a frozen aliquot of CellTiter-Glo® Reagent, the aliquot was thawed and equilibrated to RT prior to use while keeping it protected from light. Alternatively, new bottles of CellTiter-Glo® Buffer and CellTiter-Glo® Substrate were thawed and equilibrated to RT prior to use. CellTiter-Glo® Buffer (100 mL) was transferred into the amber bottle containing CellTiter-Glo® Substrate to reconstitute the lyophilized enzyme/substrate mixture, forming the CellTiter-Glo® Reagent. The reconstituted reagent was mixed by gently inverting the contents to obtain a homogeneous solution, and went into solution easily in less than 1 min. Any unused reconstituted CellTiter-Glo® Reagent was immediately aliquoted and frozen at −20° C., and protected from light. Cell plates were equilibrated at RT for approximately 30 mins. An equi-volume amount of CellTiter-Glo® Reagent (100 μL) was added to each well. Plates were mixed for 2 mins on an orbital shaker to induce cell lysis, and then were allowed to incubate at RT for 10 mins to stabilize the luminescent signal. Luminescence was recorded using the PerkinElmer EnVision Excite Multilabel Reader used for endpoint reading for luminescence detection (Waltham, Mass.). Data was analyzed using a four-parameter fit in Microsoft Excel.

[6] = system: A431 (WT) cells; experiment: EGFR cell proliferation assay (CellTiter-Glo), A431; format: cell-based; details: Homo sapiens, A-431, 3-5 days
Protocol: as §1, §2, §3

[7] = system: H1975 (L858R/T790M) cells; experiment: EGFR cell proliferation assay (CellTiter-Glo), H1975; format: cell-based; details: Homo sapiens, NCI-H1975, 3-5 days
Protocol: as §1, §2, §3

[8] = target: EGFR L858R (Homo sapiens, UniProt P00533, L858R); experiment: EGFR biochemical enzyme assay, L858R
[9] = target: INSR (Homo sapiens, UniProt P06213); experiment: Biochemical enzyme assay, INSR
Chain of INSR (P06213 28-1382, species assumed): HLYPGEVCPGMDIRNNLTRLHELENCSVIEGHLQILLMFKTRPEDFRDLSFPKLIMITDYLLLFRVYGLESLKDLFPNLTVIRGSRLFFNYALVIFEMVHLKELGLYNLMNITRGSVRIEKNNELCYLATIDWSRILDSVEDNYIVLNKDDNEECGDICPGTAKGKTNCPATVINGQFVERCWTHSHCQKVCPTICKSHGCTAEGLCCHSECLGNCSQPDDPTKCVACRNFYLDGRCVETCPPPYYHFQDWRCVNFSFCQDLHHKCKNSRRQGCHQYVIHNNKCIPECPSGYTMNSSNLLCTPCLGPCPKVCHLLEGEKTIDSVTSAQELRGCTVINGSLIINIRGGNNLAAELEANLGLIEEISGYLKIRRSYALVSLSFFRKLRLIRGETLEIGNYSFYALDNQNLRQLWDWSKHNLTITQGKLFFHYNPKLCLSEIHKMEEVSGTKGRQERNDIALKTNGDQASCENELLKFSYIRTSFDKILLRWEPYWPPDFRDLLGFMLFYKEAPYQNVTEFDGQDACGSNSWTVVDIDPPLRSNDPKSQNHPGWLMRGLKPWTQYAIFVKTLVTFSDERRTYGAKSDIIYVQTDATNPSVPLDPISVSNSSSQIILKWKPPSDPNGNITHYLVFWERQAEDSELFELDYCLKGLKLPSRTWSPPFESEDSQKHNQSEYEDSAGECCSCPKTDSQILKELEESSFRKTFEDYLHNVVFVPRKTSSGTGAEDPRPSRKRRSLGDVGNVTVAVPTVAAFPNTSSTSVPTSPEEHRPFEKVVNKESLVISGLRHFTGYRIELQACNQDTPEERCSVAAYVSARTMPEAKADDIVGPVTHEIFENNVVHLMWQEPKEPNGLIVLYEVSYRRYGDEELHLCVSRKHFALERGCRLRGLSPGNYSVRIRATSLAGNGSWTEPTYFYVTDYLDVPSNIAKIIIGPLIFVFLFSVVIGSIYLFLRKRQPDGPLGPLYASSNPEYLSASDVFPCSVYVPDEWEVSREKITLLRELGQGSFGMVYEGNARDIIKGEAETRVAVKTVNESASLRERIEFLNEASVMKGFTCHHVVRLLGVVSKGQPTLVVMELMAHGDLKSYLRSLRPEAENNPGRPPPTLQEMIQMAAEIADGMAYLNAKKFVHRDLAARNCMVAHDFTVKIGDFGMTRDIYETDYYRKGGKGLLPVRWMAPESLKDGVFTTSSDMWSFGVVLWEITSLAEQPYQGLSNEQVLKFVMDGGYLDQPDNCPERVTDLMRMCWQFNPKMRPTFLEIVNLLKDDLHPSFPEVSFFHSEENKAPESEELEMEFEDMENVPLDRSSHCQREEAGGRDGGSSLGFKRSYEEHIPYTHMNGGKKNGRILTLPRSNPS

T2 sequence (P00533 696-1210 T790M/L858R): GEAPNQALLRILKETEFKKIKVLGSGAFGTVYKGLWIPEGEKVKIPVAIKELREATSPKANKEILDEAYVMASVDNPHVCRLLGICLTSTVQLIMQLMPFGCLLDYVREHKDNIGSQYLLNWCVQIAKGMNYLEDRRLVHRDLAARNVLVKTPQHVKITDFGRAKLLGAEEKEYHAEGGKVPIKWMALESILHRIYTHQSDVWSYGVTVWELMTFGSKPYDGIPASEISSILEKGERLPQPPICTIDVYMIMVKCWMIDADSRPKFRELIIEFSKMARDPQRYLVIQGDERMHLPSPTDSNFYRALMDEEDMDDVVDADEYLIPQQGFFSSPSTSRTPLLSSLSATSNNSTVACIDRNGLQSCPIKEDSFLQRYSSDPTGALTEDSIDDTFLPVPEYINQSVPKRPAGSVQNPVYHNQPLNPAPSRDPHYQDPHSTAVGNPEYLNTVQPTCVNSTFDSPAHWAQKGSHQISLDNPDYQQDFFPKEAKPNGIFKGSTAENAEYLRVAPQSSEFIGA
Chain of IGF1R (P08069 31-1367, species assumed): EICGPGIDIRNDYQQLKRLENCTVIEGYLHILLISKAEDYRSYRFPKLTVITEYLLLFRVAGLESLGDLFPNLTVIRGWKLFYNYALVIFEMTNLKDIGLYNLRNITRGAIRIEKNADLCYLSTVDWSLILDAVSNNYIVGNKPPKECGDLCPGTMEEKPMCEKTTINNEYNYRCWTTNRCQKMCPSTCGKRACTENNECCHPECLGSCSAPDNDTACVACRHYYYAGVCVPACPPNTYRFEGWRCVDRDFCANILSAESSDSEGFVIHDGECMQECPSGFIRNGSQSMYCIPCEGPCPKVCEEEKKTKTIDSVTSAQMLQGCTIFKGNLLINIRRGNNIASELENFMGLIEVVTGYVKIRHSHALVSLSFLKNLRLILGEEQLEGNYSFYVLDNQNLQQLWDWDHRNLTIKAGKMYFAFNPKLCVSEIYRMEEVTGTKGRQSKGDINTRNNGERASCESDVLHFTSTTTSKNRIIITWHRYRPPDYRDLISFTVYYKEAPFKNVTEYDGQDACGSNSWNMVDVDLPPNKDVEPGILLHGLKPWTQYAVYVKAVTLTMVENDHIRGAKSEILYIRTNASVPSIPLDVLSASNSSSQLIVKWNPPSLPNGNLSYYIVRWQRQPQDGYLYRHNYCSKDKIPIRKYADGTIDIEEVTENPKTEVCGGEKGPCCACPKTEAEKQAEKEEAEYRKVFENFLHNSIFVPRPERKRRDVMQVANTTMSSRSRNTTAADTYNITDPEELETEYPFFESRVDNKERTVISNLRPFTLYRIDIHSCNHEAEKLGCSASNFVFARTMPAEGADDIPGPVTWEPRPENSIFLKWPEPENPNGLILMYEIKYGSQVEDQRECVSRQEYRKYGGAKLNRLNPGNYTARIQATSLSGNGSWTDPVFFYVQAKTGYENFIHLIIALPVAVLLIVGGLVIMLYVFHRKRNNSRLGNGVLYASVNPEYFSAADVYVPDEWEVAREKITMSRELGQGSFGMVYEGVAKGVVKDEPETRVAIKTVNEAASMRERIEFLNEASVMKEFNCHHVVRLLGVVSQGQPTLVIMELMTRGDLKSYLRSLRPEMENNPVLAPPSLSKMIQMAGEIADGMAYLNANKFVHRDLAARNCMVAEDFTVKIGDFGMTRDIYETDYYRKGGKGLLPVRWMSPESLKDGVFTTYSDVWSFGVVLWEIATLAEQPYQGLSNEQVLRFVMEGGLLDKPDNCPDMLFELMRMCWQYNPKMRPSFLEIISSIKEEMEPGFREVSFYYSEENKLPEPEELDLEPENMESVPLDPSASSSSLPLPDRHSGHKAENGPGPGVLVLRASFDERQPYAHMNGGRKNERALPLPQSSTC
Chain of EGFR Wt (P00533 25-1210): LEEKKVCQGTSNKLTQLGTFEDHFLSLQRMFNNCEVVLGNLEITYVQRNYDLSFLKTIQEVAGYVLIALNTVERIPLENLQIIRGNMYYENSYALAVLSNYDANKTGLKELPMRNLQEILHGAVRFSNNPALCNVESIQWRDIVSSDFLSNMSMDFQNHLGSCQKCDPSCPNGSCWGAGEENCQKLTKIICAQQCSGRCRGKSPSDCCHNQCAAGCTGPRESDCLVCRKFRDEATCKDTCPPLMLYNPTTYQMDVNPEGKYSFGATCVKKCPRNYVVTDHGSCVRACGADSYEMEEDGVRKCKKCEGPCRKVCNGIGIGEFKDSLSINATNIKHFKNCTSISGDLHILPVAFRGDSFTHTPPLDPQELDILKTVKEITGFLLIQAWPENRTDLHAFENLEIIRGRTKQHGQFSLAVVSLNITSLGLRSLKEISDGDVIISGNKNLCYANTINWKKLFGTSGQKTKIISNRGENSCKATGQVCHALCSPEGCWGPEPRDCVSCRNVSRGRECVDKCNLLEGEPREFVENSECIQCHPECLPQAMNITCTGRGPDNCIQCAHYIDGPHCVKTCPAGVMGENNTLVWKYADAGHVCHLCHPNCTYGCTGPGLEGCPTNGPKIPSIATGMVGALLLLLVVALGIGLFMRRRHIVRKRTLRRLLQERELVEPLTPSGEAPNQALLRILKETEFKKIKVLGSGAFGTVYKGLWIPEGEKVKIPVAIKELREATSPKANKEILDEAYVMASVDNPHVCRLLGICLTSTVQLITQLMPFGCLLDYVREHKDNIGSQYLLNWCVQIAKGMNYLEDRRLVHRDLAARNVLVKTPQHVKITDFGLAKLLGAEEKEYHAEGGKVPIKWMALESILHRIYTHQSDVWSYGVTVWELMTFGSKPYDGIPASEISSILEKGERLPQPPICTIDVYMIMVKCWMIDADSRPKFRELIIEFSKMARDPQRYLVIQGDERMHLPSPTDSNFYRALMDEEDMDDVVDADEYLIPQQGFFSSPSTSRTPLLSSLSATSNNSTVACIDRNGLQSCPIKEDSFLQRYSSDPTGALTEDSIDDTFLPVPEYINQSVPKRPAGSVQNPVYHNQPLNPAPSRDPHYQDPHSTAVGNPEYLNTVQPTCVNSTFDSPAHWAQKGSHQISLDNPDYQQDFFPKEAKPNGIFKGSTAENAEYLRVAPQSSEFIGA

Structure (SMILES)	IC50 [1]	IC50 [2]	IC50 [3]	IC50 [4]	IC50 [5]	IC50 [6]	IC50 [7]	IC50 [8]	IC50 [9]
C=CC(=O)N[C@@H]1CN(c2nc(Nc3cn(C)nc3OC)c3ncn(C45CC(C4)C5)c3n2)C[C@H]1F (racemic) [Example 6, N-((3R,4R)-1-(9-(bicyclo[1.1.1]pentan-1-yl)-6-((3-methoxy-1-methyl-1H-pyrazol-4-yl)amino)-9H-purin-2-yl)-4-fluoropyrrolidin-3-yl)acrylamide]	≥ 0.1 µM	≤ 0.01 µM	≤ 0.01 µM	≤ 0.01 µM	< 0.05 µM	≥ 0.3 µM	0.05 to 0.3 µM	≤ 0.01 µM	≥ 0.1 µM
C=CC(=O)N[C@@H]1CN(c2nc(Nc3cn(C)nc3OC)c3ncc(C)n3n2)C[C@H]1F [Example 1, N-((3R,4R)-4-fluoro-1-(4-((3-methoxy-1-methyl-1H-pyrazol-4-yl)amino)-7-methylimidazo[2,1-f][1,2,4]triazin-2-yl)pyrrolidin-3-yl)acrylamide]	≥ 0.1 µM	≤ 0.01 µM	≤ 0.01 µM	≤ 0.01 µM	< 0.05 µM	≥ 0.3 µM	< 0.05 µM	≤ 0.01 µM	≥ 0.1 µM
C=CC(=O)N[C@@H]1CN(c2nc(Nc3cn([C@H]4CCN(C)C4)nc3OC)c3ncc(C)n3n2)C[C@H]1F [Example 2, N-((3R,4R)-4-fluoro-1-(4-((3-methoxy-1-((S)-1-methylpyrrolidin-3-yl)-1H-pyrazol-4-yl)amino)-7-methylimidazo[2,1-f][1,2,4]triazin-2-yl)pyrrolidin-3-yl)acrylamide]	≥ 0.1 µM	≤ 0.01 µM	≤ 0.01 µM	≤ 0.01 µM	< 0.05 µM	0.05 to 0.3 µM	< 0.05 µM	–	≥ 0.1 µM
C=CC(=O)N[C@@H]1CN(c2nc(Nc3cn(C4CCN(C)CC4)nc3OC)c3ncc(C)n3n2)C[C@H]1F [Example 4, N-((3R,4R)-4-fluoro-1-(4-((3-methoxy-1-(1-methylpiperidin-4-yl)-1H-pyrazol-4-yl)amino)-7-methylimidazo[2,1-f][1,2,4]triazin-2-yl)pyrrolidin-3-yl)acrylamide]	≥ 0.1 µM	≤ 0.01 µM	≤ 0.01 µM	≤ 0.01 µM	< 0.05 µM	0.05 to 0.3 µM	< 0.05 µM	–	≥ 0.1 µM
C=CC(=O)N[C@@H]1CN(c2nc(Nc3cn(CCN(C)C)nc3OC)c3ncc(C)n3n2)C[C@H]1F [Example 5, N-((3R,4R)-1-(4-((1-(2-(dimethylamino)ethyl)-3-methoxy-1H-pyrazol-4-yl)amino)-7-methylimidazo[2,1-f][1,2,4]triazin-2-yl)-4-fluoropyrrolidin-3-yl)acrylamide]	≥ 0.1 µM	≤ 0.01 µM	≤ 0.01 µM	≤ 0.01 µM	< 0.05 µM	0.05 to 0.3 µM	< 0.05 µM	–	≥ 0.1 µM
